From US8399491B2, “Derivatives of indole-2-carboxamides and of azaindole-2-carboxamides substituted with a silanyl group, preparation thereof and therapeutic use thereof” (Sanofi, priority 2008, dated 2013) come the findings set out here.

Each structure is given as a SMILES string.

The target of the first data set is T1, TRPV1 receptor (Rattus norvegicus, UniProt O35433).
T1 construct: The neurones of the DRG naturally express the TRPV1 receptor; endogenous in cells; host or cells: primary culture of newborn rat dorsal root ganglion (DRG) neurones
T1 sequence (O35433 whole entry): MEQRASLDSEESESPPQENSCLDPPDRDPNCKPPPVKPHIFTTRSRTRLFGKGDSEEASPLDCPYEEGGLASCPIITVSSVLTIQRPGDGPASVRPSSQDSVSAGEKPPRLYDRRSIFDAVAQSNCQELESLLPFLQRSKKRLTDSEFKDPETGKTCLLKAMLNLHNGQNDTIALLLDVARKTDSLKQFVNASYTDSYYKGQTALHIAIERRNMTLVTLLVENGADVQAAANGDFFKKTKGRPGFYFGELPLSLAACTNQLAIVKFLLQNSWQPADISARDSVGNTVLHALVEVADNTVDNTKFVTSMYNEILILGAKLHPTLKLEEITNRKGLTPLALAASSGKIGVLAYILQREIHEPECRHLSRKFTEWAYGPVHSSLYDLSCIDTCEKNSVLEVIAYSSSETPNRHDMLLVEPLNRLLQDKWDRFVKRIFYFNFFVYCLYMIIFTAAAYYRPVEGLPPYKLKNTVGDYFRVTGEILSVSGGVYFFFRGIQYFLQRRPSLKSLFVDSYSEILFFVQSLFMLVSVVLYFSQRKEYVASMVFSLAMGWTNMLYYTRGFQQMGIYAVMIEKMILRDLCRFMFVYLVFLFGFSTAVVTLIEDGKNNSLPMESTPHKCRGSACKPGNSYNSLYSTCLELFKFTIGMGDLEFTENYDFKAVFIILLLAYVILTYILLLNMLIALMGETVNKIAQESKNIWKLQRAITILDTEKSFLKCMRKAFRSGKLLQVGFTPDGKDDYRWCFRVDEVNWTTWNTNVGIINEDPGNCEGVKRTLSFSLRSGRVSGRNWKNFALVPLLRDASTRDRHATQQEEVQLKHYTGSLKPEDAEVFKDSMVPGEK
Nature of the data set: Inhibition of the current induced by capsaicin on rat DRGs (whole-cell patch-clamp). In kind it is cell-based. The note with it: compound at 1 nM; capsaicin response (1 microM); newborn rat DRG primary culture. The protocol: Test for Inhibition of the Current Induced by Capsaicin on Rat DRGs
Primary Culture of Rat Dorsal Route Ganglion (DRG) Cells:
The neurones of the DRG naturally express the TRPV1 receptor.
Newborn rat DRG primary cultures are prepared from 1-day-old rat pups. Briefly, after dissection, the ganglia are trypsinized and the cells are mechanically dissociated by controlled trituration. The cells are resuspended in an Eagle's basal culture medium containing 10% of foetal calf serum, 25 mM KCl, 2 mM glutamine, 100 μg/ml gentamicin and 50 ng/ml of NGF, and then deposited onto laminin-coated glass coverslips (0.2×10^6 cells per coverslip) which are then placed in Corning 12-well dishes. […]
The measuring chambers (volume 800 μl) containing the cell preparation are placed on the platform of an inverted microscope (Olympus IMT2) equipped with Hoffman optics (Modulation Contrast, New York) and observed at the magnification of ×400. […] The overall currents (membrane potential fixed at −60 mV) are recorded with an Axopatch 1D amplifier (Axon Instruments, Foster city, Calif.), connected to a PC controlled by Pclamp8 software (Axon Instruments). The current traces are recorded on paper and simultaneously digitized (sampling frequency 15 to 25 Hz) and acquired on the hard drive of the PC. […] The results are expressed as % inhibition of the control capsaicin response.
What is called inhibition is the change of the read-out against control, counted positive when it falls. Read a high inhibition as strong suppression. `C[Si](C)(C)c1ccc2cc(C(=O)Nc3ccc(N4CC(O)C4)nc3)n(Cc3cccc(F)c3)c2c1` [Compound 2, N-[6-(3-Hydroxyazetidin-1-yl)pyridin-3-yl]-6-trimethylsilyl-1-[(3-fluorophenyl)methyl]-1H-indole-2-carboxamide] showed an inhibition at 0.001 µM of 84%.

Still in this data set, the particulars now being: compound at 10 nM; capsaicin response (1 microM); newborn rat DRG primary culture.
On to `C[Si](C)(C)c1ccc2c(c1)cc(C(=O)Nc1ccc(N3CCC3)nc1)n2Cc1cccc(F)c1` [Compound 3, N-[6-(Azetidin-1-yl)pyridin-3-yl]-5-trimethylsilyl-1-[(3-fluorophenyl)methyl]-1H-indole-2-carboxamide], for which the inhibition at 0.01 µM was 95%.

Tested on in a further data set: not given
Assay: not given
Details: not given
By melting point is commonly meant the temperature, or range, at which the solid turns liquid. As for `C[Si](C)(C)c1ccc2c(c1)cc(C(=O)Nc1ccc(N3CCC3)nc1)n2Cc1cccc(F)c1` [Compound 3, N-[6-(Azetidin-1-yl)pyridin-3-yl]-5-trimethylsilyl-1-[(3-fluorophenyl)methyl]-1H-indole-2-carboxamide], the melting point was 212 to 213 °C. On to `CC(C)(C)[Si](C)(C)c1ccc2c(c1)cc(C(=O)Nc1ccc(N3CCC3)nc1)n2Cc1cccc(F)c1`, for which the melting point was 110 to 112 °C.

Consider `O=C(Nc1ccc(N2CCC2)nc1)c1cc2cc([SiH2]C(c3ccccc3)c3ccccc3)ccc2n1Cc1cccc(F)c1`, for which the melting point fell in the range of 98 to 100 °C. The molecule `CC(C)[Si](C)(C)c1ccc2c(c1)cc(C(=O)Nc1ccc(N3CCC3)nc1)n2Cc1cccc(F)c1` had a melting point of 179 to 180 °C. Still for that read-out and setting: the figure for `CC[Si](C)(CC)c1ccc2c(c1)cc(C(=O)Nc1ccc(N3CCC3)nc1)n2Cc1cccc(F)c1` is 171 to 173 °C; for `C[Si](C)(C)c1ccc2c(c1)cc(C(=O)Nc1ccc(N3CC(O)C3)nc1)n2Cc1cccc(F)c1` it is 207 to 208 °C; for `CC[Si](C)(C)c1ccc2c(c1)cc(C(=O)Nc1ccc(N3CCC3)nc1)n2Cc1cccc(F)c1` it is 188 to 189 °C. In the case of `C[Si](C)(C)c1cccc2cc(C(=O)Nc3ccc(N4CCC4)nc3)n(Cc3cccc(F)c3)c12`, the melting point was 160 to 162 °C. The same measure, in the same setting: next, `C[Si](C)(c1ccccc1)c1ccc2c(c1)cc(C(=O)Nc1ccc(N3CCC3)nc1)n2Cc1cccc(F)c1`: 200 to 202 °C; `C[Si](C)(C)c1cccc2cc(C(=O)Nc3ccc(N4CC(O)C4)nc3)n(Cc3cccc(F)c3)c12`: 215 to 217 °C. Consider `CC[Si](CC)(CC)c1ccc2c(c1)cc(C(=O)Nc1ccc(N3CCC3)nc1)n2Cc1cccc(F)c1`, for which the melting point lay within 166 to 168 °C. Molecule `C[Si](C)(c1ccc2c(c1)cc(C(=O)Nc1ccc(N3CCCC3)nc1)n2Cc1cccc(F)c1)C1CCCCC1` returned a melting point of 192 to 194 °C.

`C[Si](C)(c1ccc2c(c1)cc(C(=O)Nc1ccc(N3CCC3)nc1)n2Cc1cccc(F)c1)C1CCCCC1` came in with a melting point of 202 to 203 °C.
